Source: patent US5739334A (Istituto Ricerca Francesco Angelini S.p.A., priority 1992, dated 1998)

Key:
DL50 = type: in vivo; set-up: unit not given beside the values; details: species, route and unit not given
serotonin 2 = experiment: Chemical bond studies: interference with serotonin 2 receptor (% inhibition); type: binding; details: table 2
alpha 1 = experiment: Chemical bond studies: interference with alpha 1 receptor (% inhibition); type: binding; details: table 2
[1] = attributed to action on adrenergic receptors (alpha 1 and alpha 2); cited from earlier work
[2] = Burger's Medicinal Chemistry, 4th ed. (1981); cited from earlier work

Row | Compound | DL50 (DL50) | serotonine 2 (% inhibition) (serotonin 2; C = 10^-5 M) | serotonine 2 (% inhibition) (serotonin 2; C = 10^-7 M) | alpha 1 (% inhibition) (alpha 1; C = 10^-5 M) | alpha 1 (% inhibition) (alpha 1; C = 10^-7 M) | sporadic side effects [1] | clinical actions [2]
1 | CC(CCn1nc2ccccn2c1=O)N1CCN(c2cccc(Cl)c2)CC1 (centres unmarked) [(I) R = R" = R"' = H; R' = CH3, 2-[3-[4-(3-chlorophenyl)-1-piperazinyl]-3-methylpropyl]-1,2,4-triazole-[4,3-a]-pyridin-3(2H)-one] | ≤ 300 | 100% | 59% | 91% | 26% |  | 
2 | CC1CN(CCCn2nc3ccccn3c2=O)CCN1c1cccc(Cl)c1 (centres unmarked) [(I) R = R' = R" = H; R"' = CH3, 2-[3-[4-(3-chlorophenyl)-1-(3-methyl)-piperazinyl]-propyl]-1,2,4-triazole-[4,3-a]-pyridin-3(2H)-one] | ≤ 600 | 98% | 68% | 85% | 20% |  | 
3 | CC1CN(c2cccc(Cl)c2)CCN1CCCn1nc2ccccn2c1=O (centres unmarked) [(I) R = R' = R"' = H; R" = CH3, 2-[3-[4-(3-chlorophenyl)-1-(2-methyl)-piperazinyl]-propyl]-1,2,4-triazole-[4,3-a]-pyridin-3(2H)-one] | 300 | 100% | 69% | 96% | 37% |  | 
4 | CC(CN1CCN(c2cccc(Cl)c2)CC1)Cn1nc2ccccn2c1=O (centres unmarked) [(I) R' = R" = R"' = H; R = CH3, 2-[3-[4-(3-chlorophenyl)-1-piperazine]-2-methylpropyl]-1,2,4-triazole[4,3-a]-pyridin-3-(2H)-one] | ≤ 600 | 100% | 62% | 88% | 27% |  | 
5 | O=c1n(CCCN2CCN(c3cccc(Cl)c3)CC2)nc2ccccn12 [trazodone] | ≥ 200 |  |  |  |  | hypotension and priapism | diazepine-like clinical actions
